Assay results: the supplement of paper PMC11451515

Tests used:
Conditions in all cases: 48 h
NOMO1 [1] = assay: cell viability relative to DMSO control; higher = less cytotoxic
Summary of the method: (§1)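 Viability was expressed as a per-plate percentage of DMSO wells, with cell-free wells as background. Leukemia cells (NOMO1 or SEM at 500 cells/well, P12-Ichikawa at 1000 cells/well) were adapted for at least four passages in each medium and seeded in 1536-well plates (5 μl). Library compounds in DMSO were pin-dosed over an 11-point threefold series from 47 μM to 0.79 nM, and CellTiter-Glo One luminescence was read after 48 h at 37°C.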

P12-Ichikawa [2] = assay: as above
Summary of the method: as §1

SEM cells [3] = assay: as above
Summary of the method: as §1

NOMO1 [4] = assay: AUC of viability dose-response curve (% viability x log10 dose units); higher = less sensitive
Summary of the method: (§2)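 Library compounds in DMSO were applied for 48 h at 37°C at 11 threefold doses (47 μM to 0.79 nM) to medium-adapted leukemia cells in 1536-well plates holding 500 or 1000 cells/well. Luminescence from CellTiter-Glo One was normalised plate by plate against DMSO and cell-free wells. Area under the curve came from trapezoidal integration of a log-logistic fit, after scaling curves that rose above full viability and discarding those that failed quality control. The fit had four parameters and used log10 doses.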

P12-Ichikawa [5] = assay: as above
Summary of the method: as §2

SEM cells [6] = assay: as above
Summary of the method: as §2

COc1cc(NC(=O)c2ccc(-c3ccc(Cl)cc3)o2)cc(OC)c1
cell viability [%]
Conditions | NOMO1 [1] | P12-Ichikawa [2] | SEM cells [3]
HPLM + 10% dialyzed FBS, 0.000781 µM | 95.5 | 93.8 | 73
HPLM + 10% dialyzed FBS, 0.00234 µM | 103 | 111 | 94.6
HPLM + 10% dialyzed FBS, 0.00702 µM | 112 | 110 | 93.6
HPLM + 10% dialyzed FBS, 0.0211 µM | 112 | 112 | 106
HPLM + 10% dialyzed FBS, 0.0632 µM | 114 | 115 | 98.5
HPLM + 10% dialyzed FBS, 0.19 µM | 118 | 109 | 114
HPLM + 10% dialyzed FBS, 0.569 µM | 112 | 111 | 116
HPLM + 10% dialyzed FBS, 1.71 µM | 104 | 111 | 107
HPLM + 10% dialyzed FBS, 5.12 µM | 61.8 | 101 | 107
HPLM + 10% dialyzed FBS, 15.4 µM | 52.7 | 99.2 | 94.3
HPLM + 10% dialyzed FBS, 46.1 µM | 39.6 | 104 | 107
RPMI 5 mM glucose + 10% FBS, 0.000781 µM | 91.4 | 97.4 | 77.7
RPMI 5 mM glucose + 10% FBS, 0.00234 µM | 106 | 105 | 90
RPMI 5 mM glucose + 10% FBS, 0.00702 µM | 104 | 100 | 103
RPMI 5 mM glucose + 10% FBS, 0.0211 µM | 100 | 115 | 104
RPMI 5 mM glucose + 10% FBS, 0.0632 µM | 101 | 108 | 107
RPMI 5 mM glucose + 10% FBS, 0.19 µM | 110 | 115 | 96.8
RPMI 5 mM glucose + 10% FBS, 0.569 µM | 108 | 108 | 94.2
RPMI 5 mM glucose + 10% FBS, 1.71 µM | 92.1 | 117 | 86.4
RPMI 5 mM glucose + 10% FBS, 5.12 µM | 58.7 | 101 | 102
RPMI 5 mM glucose + 10% FBS, 15.4 µM | 74.4 | 99.5 | 105
RPMI 5 mM glucose + 10% FBS, 46.1 µM | 72.3 | 95.5 | 98.9
RPMI 5 mM glucose + 10% dialyzed FBS, 0.000781 µM | 97.5 | 84 | 81.2
RPMI 5 mM glucose + 10% dialyzed FBS, 0.00234 µM | 111 | 107 | 96.2
RPMI 5 mM glucose + 10% dialyzed FBS, 0.00702 µM | 108 | 114 | 95.9
RPMI 5 mM glucose + 10% dialyzed FBS, 0.0211 µM | 108 | 113 | 102
RPMI 5 mM glucose + 10% dialyzed FBS, 0.0632 µM | 111 | 112 | 105
RPMI 5 mM glucose + 10% dialyzed FBS, 0.19 µM | 115 | 107 | 95.4
RPMI 5 mM glucose + 10% dialyzed FBS, 0.569 µM | 109 | 115 | 96.4
RPMI 5 mM glucose + 10% dialyzed FBS, 1.71 µM | 94.9 | 104 | 89.7
RPMI 5 mM glucose + 10% dialyzed FBS, 5.12 µM | 66.8 | 101 | 99.8
RPMI 5 mM glucose + 10% dialyzed FBS, 15.4 µM | 50.7 | 94.3 | 109
RPMI 5 mM glucose + 10% dialyzed FBS, 46.1 µM | 62.8 | 104 | 90.1

AUC of viability dose-response curve
Conditions | NOMO1 [4] | P12-Ichikawa [5] | SEM cells [6]
HPLM + 10% dialyzed FBS | 412 | 471 | 457
RPMI 5 mM glucose + 10% FBS | 432 | 472 | 465
RPMI 5 mM glucose + 10% dialyzed FBS | 418 | 472 | 463

C[N+](C)(C)CC(=O)O.[Cl-]
cell viability [%]
Conditions | NOMO1 [1] | P12-Ichikawa [2] | SEM cells [3]
HPLM + 10% dialyzed FBS, 0.000781 µM | 63.1 | 86.5 | 56.8
HPLM + 10% dialyzed FBS, 0.00234 µM | 90.5 | 92 | 83.2
HPLM + 10% dialyzed FBS, 0.00702 µM | 85 | 93 | 80.5
HPLM + 10% dialyzed FBS, 0.0211 µM | 94.9 | 92.6 | 73.7
HPLM + 10% dialyzed FBS, 0.0632 µM | 94.4 | 93.7 | 79.7
HPLM + 10% dialyzed FBS, 0.19 µM | 86.3 | 87 | 85.5
HPLM + 10% dialyzed FBS, 0.569 µM | 95.6 | 98.2 | 88.3
HPLM + 10% dialyzed FBS, 1.71 µM | 89.5 | 89.8 | 26.3
HPLM + 10% dialyzed FBS, 5.12 µM | 104 | 99.3 | 93.1
HPLM + 10% dialyzed FBS, 15.4 µM | 86.5 | 88.2 | 93.4
HPLM + 10% dialyzed FBS, 46.1 µM | 93.9 | 99.1 | 89.1
RPMI 5 mM glucose + 10% FBS, 0.000781 µM | 77.1 | 86.4 | 76.8
RPMI 5 mM glucose + 10% FBS, 0.00234 µM | 86 | 94.4 | 80.8
RPMI 5 mM glucose + 10% FBS, 0.00702 µM | 80.4 | 90.9 | 73
RPMI 5 mM glucose + 10% FBS, 0.0211 µM | 81.6 | 94.7 | 77.4
RPMI 5 mM glucose + 10% FBS, 0.0632 µM | 85.5 | 91.8 | 81.8
RPMI 5 mM glucose + 10% FBS, 0.19 µM | 87.6 | 91.5 | 89.2
RPMI 5 mM glucose + 10% FBS, 0.569 µM | 87.8 | 98 | 96
RPMI 5 mM glucose + 10% FBS, 1.71 µM | 80.3 | 91.5 | 16.6
RPMI 5 mM glucose + 10% FBS, 5.12 µM | 83.2 | 94.1 | 86.8
RPMI 5 mM glucose + 10% FBS, 15.4 µM | 84.2 | 98 | 90.2
RPMI 5 mM glucose + 10% FBS, 46.1 µM | 81.1 | 93.7 | 93.4
RPMI 5 mM glucose + 10% dialyzed FBS, 0.000781 µM | 68.8 | 81.8 | 81.5
RPMI 5 mM glucose + 10% dialyzed FBS, 0.00234 µM | 88.1 | 87.4 | 95
RPMI 5 mM glucose + 10% dialyzed FBS, 0.00702 µM | 79.7 | 85.4 | 90.9
RPMI 5 mM glucose + 10% dialyzed FBS, 0.0211 µM | 89.3 | 86 | 87.8
RPMI 5 mM glucose + 10% dialyzed FBS, 0.0632 µM | 90.8 | 91.1 | 81.7
RPMI 5 mM glucose + 10% dialyzed FBS, 0.19 µM | 89.1 | 82.4 | 89
RPMI 5 mM glucose + 10% dialyzed FBS, 0.569 µM | 92.3 | 90.7 | 100
RPMI 5 mM glucose + 10% dialyzed FBS, 1.71 µM | 91.5 | 88.1 | 21
RPMI 5 mM glucose + 10% dialyzed FBS, 5.12 µM | 83.8 | 82.9 | 91.8
RPMI 5 mM glucose + 10% dialyzed FBS, 15.4 µM | 92 | 90.4 | 88.8
RPMI 5 mM glucose + 10% dialyzed FBS, 46.1 µM | 84.7 | 81.7 | 74.2

AUC of viability dose-response curve
Conditions | NOMO1 [4] | P12-Ichikawa [5] | SEM cells [6]
HPLM + 10% dialyzed FBS | 432 | 442 | 373
RPMI 5 mM glucose + 10% FBS | 398 | 446 | 374
RPMI 5 mM glucose + 10% dialyzed FBS | 416 | 411 | 391
